{"source": "patent US20260248126A1", "about": "“BIOCIDE” (PURGOS APS, priority 2020, published 2026)", "origin": "cited, not measured here", "conditions": "cited from earlier work"}
{"compound": "[Cl-].[Na+]", "note": "[table salt (NaCl), NaCl]", "values": [{"measurement": "LD50 (rat, oral)", "value": 3000, "unit": "mg"}]}
